Assay [1] concerns the target Mer tyrosine kinase (Homo sapiens (Human), UniProt Q12866). The experiment in a line: Evaluation of activity against Mer tyrosine kinase. The assay is classed as biochemical.
In assay [2] the target is Tyro3 tyrosine kinase (Homo sapiens (Human), UniProt Q06418). The assay can be described thus: Evaluation of activity against Tyro3 tyrosine kinase. It counts as biochemical.

Molecules are shown by their SMILES.

Sequence of Mer tyrosine kinase (Q12866 21-999): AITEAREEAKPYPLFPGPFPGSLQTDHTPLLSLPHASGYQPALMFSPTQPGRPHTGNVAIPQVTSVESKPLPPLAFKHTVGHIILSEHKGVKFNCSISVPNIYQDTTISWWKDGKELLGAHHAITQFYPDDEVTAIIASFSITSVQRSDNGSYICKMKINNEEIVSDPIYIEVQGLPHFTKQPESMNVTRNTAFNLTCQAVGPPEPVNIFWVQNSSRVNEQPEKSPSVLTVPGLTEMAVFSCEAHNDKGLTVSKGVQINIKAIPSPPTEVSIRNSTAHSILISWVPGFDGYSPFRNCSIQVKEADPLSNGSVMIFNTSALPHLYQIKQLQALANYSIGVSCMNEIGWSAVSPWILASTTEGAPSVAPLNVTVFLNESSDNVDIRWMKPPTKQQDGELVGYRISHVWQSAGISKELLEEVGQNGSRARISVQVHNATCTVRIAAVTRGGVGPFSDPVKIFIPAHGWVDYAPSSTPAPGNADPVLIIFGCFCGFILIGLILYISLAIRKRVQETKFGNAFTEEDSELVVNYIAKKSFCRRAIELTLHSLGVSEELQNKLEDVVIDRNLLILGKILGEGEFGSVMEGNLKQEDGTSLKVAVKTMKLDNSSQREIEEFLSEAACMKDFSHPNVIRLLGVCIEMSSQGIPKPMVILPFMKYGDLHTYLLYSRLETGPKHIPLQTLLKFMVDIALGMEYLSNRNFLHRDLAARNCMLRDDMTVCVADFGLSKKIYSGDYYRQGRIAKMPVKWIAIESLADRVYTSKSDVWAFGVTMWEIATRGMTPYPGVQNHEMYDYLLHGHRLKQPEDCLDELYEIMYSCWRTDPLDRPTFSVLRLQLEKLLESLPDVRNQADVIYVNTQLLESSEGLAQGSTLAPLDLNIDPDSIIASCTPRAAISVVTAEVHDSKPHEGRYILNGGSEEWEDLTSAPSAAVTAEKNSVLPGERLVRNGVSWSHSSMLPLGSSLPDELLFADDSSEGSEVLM
Sequence of Tyro3 tyrosine kinase (Q06418 41-890): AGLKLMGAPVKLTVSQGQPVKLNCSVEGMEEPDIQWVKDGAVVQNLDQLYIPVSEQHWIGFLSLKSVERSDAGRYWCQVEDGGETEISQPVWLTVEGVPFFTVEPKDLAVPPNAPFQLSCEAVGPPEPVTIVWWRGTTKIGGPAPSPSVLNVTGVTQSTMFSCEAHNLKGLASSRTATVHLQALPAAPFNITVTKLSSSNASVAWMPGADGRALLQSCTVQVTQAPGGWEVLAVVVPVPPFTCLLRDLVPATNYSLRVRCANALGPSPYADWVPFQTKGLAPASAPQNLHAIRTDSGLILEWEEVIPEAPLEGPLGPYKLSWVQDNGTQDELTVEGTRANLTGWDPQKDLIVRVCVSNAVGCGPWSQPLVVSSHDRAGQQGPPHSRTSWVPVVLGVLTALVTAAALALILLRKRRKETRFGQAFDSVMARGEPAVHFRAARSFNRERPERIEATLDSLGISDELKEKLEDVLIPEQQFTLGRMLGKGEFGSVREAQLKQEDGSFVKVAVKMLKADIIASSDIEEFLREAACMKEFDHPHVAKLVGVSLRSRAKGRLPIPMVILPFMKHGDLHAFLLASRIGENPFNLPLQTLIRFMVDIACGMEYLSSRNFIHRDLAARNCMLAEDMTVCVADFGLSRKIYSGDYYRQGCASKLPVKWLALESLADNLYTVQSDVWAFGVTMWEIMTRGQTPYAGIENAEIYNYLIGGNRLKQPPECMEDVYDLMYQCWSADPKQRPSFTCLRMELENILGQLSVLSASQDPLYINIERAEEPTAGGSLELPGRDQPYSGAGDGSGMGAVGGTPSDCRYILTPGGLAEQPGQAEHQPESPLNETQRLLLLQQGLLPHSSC

`CCC[C@H](C)Nc1ncc2c(C3CCN(C(=O)c4nccs4)CC3)cn([C@H]3CC[C@H](O)CC3)c2n1` [compound 57, (4-(7-((1R,4S)-4-hydroxycyclohexyl)-2-(((S)-pentan-2-yl)amino)-7H-pyrrolo[2,3-d]pyrimidin-5-yl)piperidin-1-yl)(thiazol-2-yl)methanone]: the figures for the half-inhibitory concentration (IC50) in assay [1] and in assay [2] were less than 10 nM and 100 to 1000 nM, respectively.
As to `CCC[C@H](C)Nc1ncc2c(C3CCN(C(=O)c4ccccc4OC)CC3)cn([C@H]3CC[C@H](O)CC3)c2n1` [compound 33, (4-(7-((1R,4S)-4-hydroxycyclohexyl)-2-(((S)-pentan-2-yl)amino)-7H-pyrrolo[2,3-d]pyrimidin-5-yl)piperidin-1-yl)(2-methoxyphenyl)methanone], the results for the concentration for half-maximal inhibition (IC50) in assay [1] and in assay [2] were less than 10 nM and 100 to 1000 nM, respectively.
With `CCC[C@H](C)Nc1ncc2c(C3CCN(C(=O)c4ccc(CN(C)C)cc4)CC3)cn([C@H]3CC[C@H](O)CC3)c2n1` [compound 87, (4-((dimethylamino)methyl)phenyl)(4-(7-((1R,4S)-4-hydroxycyclohexyl)-2-(((S)-pentan-2-yl)amino)-7H-pyrrolo[2,3-d]pyrimidin-5-yl)piperidin-1-yl)methanone], the IC50 in assay [1] is less than 10 nM; in assay [2], 10 to 100 nM.
Consider `CC[C@@H]1C[C@H]1Nc1ncc2c(C3CCN(C(=O)c4ccncc4)CC3)cn([C@H]3CC[C@H](O)CC3)c2n1` [compound 43, (4-(2-(((1R,2R)-2-ethylcyclopropyl)amino)-7-((1R,4R)-4-hydroxycyclohexyl)-7H-pyrrolo[2,3-d]pyrimidin-5-yl)piperidin-1-yl)(pyridin-4-yl)methanone], for which the half-inhibitory concentration (IC50) in assay [1] is less than 10 nM; in assay [2], 100 to 1000 nM.
Consider `CCC[C@H](C)Nc1ncc2c(C3CCN(C(=O)c4ccc(CNC)cc4)CC3)cn([C@H]3CC[C@H](O)CC3)c2n1` [compound 85, (4-(7-((1R,4S)-4-hydroxycyclohexyl)-2-(((S)-pentan-2-yl)amino)-7H-pyrrolo[2,3-d]pyrimidin-5-yl)piperidin-1-yl)(4-((methylamino)methyl)phenyl)methanone], for which the IC50 was less than 10 nM in assay [1] and 10 to 100 nM in assay [2].
Take `Cc1cc(C(=O)N2CCC(c3cn([C@H]4CC[C@H](O)CC4)c4nc(NCCC5CC5)ncc34)CC2)cc(C)n1` [compound 72, (4-(2-((2-cyclopropylethyl)amino)-7-((1R,4R)-4-hydroxycyclohexyl)-7H-pyrrolo[2,3-d]pyrimidin-5-yl)piperidin-1-yl)(2,6-dimethylpyridin-4-yl)methanone]: the IC50 in assay [1] was less than 10 nM; in assay [2] it was 100 to 1000 nM.
Consider `CCC[C@H](C)Nc1ncc2c(C3CCN(C(=O)c4cc(F)cc(F)c4)CC3)cn([C@H]3CC[C@H](O)CC3)c2n1` [compound 81, (3,5-difluorophenyl)(4-(7-((1R,4S)-4-hydroxycyclohexyl)-2-(((S)-pentan-2-yl)amino)-7H-pyrrolo[2,3-d]pyrimidin-5-yl)piperidin-1-yl)methanone], for which the results for the concentration for half-maximal inhibition (IC50) in assay [1] and in assay [2] were less than 10 nM and 100 to 1000 nM, respectively.
`CCC[C@H](C)Nc1ncc2c(C3CCN(C)C3)cn([C@H]3CC[C@H](O)CC3)c2n1` (stereo partly drawn) [compound 99, (1S,4R)-4-(5-(1-methylpyrrolidin-3-yl)-2-(((S)-pentan-2-yl)amino)-7H-pyrrolo[2,3-d]pyrimidin-7-yl)cyclohexan-1-ol]: the half-maximal inhibitory concentration (IC50) in assay [1] is less than 10 nM; in assay [2] it was 100 to 1000 nM.
Regarding `CCC[C@H](C)Nc1ncc2c(C3CCN(C(=O)C4CCCN4)CC3)cn([C@H]3CC[C@H](O)CC3)c2n1` (stereo partly drawn) [compound 15, 7-((1R,4S)-4-hydroxycyclohexyl)-2-(((S)-pentan-2-yl)amino)-5-(1-prolylpiperidin-4-yl)-7H-pyrrolo[2,3-d]pyrimidine], the concentration for half-maximal inhibition (IC50) in assay [1] is less than 10 nM; in assay [2] it was 10 to 100 nM.
Turning to `CCC[C@H](C)Nc1ncc2c(C3CCN(CC4CCN(C)CC4)CC3)cn([C@H]3CC[C@H](O)CC3)c2n1` [compound 54, (1S,4R)-4-(5-(1-((1-methylpiperidin-4-yl)methyl)piperidin-4-yl)-2-(((S)-pentan-2-yl)amino)-7H-pyrrolo[2,3-d]pyrimidin-7-yl)cyclohexan-1-ol], the IC50 in assay [1] is less than 10 nM; in assay [2], 10 to 100 nM.
For `CCC[C@H](C)Nc1ncc2c(C3CCN(C(=O)c4cncs4)CC3)cn([C@H]3CC[C@H](O)CC3)c2n1` [compound 59, (4-(7-((1R,4S)-4-hydroxycyclohexyl)-2-(((S)-pentan-2-yl)amino)-7H-pyrrolo[2,3-d]pyrimidin-5-yl)piperidin-1-yl)(thiazol-5-yl)methanone] the same measures were less than 10 nM and 10 to 100 nM.
For `CCC[C@H](C)Nc1ncc2c(C3CCN(C(=O)c4ncc[nH]4)CC3)cn([C@H]3CC[C@H](O)CC3)c2n1` [compound 62, (4-(7-((1r,4S)-4-hydroxycyclohexyl)-2-(((S)-pentan-2-yl)amino)-7H-pyrrolo[2,3-d]pyrimidin-5-yl)piperidin-1-yl)(1H-imidazol-2-yl)methanone] the same measures were less than 10 nM and 100 to 1000 nM.
Take `CCC[C@H](C)Nc1ncc2c(C3CCN(C(=O)c4cc(C)nc(C)c4)CC3)cn([C@H]3CC[C@H](CO)CC3)c2n1` [compound 86]: the figures for the half-inhibitory concentration (IC50) in assay [1] and in assay [2] were less than 10 nM and 10 to 100 nM, respectively.
For `CCC[C@H](C)Nc1ncc2c(C3CCN(C(=O)C4CNC4)CC3)cn([C@H]3CC[C@H](O)CC3)c2n1` [compound 13, Azetidin-3-yl(4-(7-((1R,4S)-4-hydroxycyclohexyl)-2-(((S)-pentan-2-yl)amino)-7H-pyrrolo[2,3-d]pyrimidin-5-yl)piperidin-1-yl)methanone] the same measures were less than 10 nM and 10 to 100 nM.
For `Cc1cc(C(=O)N2CCC(c3cn([C@H]4CC[C@H](O)CC4)c4nc(NCCCCO)ncc34)CC2)cc(C)n1` [compound 100, (2,6-dimethylpyridin-4-yl)(4-(2-((4-hydroxybutyl)amino)-7-((1r,4r)-4-hydroxycyclohexyl)-7H-pyrrolo[2,3-d]pyrimidin-5-yl)piperidin-1-yl)methanone] the same measures were less than 10 nM and 1000 to 30000 nM.
Turning to `CCC[C@H](C)Nc1ncc2c(C3CCN(C(=O)[C@@H]4CCCCN4)CC3)cn([C@H]3CC[C@H](O)CC3)c2n1` [compound 19, (4-(7-((1R,4S)-4-hydroxycyclohexyl)-2-(((S)-pentan-2-yl)amino)-7H-pyrrolo[2,3-d]pyrimidin-5-yl)piperidin-1-yl)((S)-piperidin-2-yl)methanone], the figures for the IC50 in assay [1] and in assay [2] were less than 10 nM and 10 to 100 nM, respectively.
As to `CCC[C@H](C)Nc1ncc2c(C3CCN(C(=O)c4ccc[nH]4)CC3)cn([C@H]3CC[C@H](O)CC3)c2n1` [compound 60, (4-(7-((1R,4S)-4-hydroxycyclohexyl)-2-(((S)-pentan-2-yl)amino)-7H-pyrrolo[2,3-d]pyrimidin-5-yl)piperidin-1-yl)(1H-pyrrol-2-yl)methanone], the half-maximal inhibitory concentration (IC50) is less than 10 nM in assay [1] and 100 to 1000 nM in assay [2].
Turning to `CCC[C@H](C)Nc1ncc2c(C3CCN(C(=O)c4cc(C)nc(C)c4)CC3)cn([C@H]3CC[C@H](O)CC3)c2n1` [compound 34, (2,6-dimethylpyridin-4-yl)(4-(7-((1R,4S)-4-hydroxycyclohexyl)-2-(((S)-pentan-2-yl)amino)-7H-pyrrolo[2,3-d]pyrimidin-5-yl)piperidin-1-yl)methanone], the 50% inhibitory concentration (IC50) was less than 10 nM in assay [1] and 10 to 100 nM in assay [2].
Take `CCC[C@H](C)Nc1ncc2c(C3CCN(C(=O)C4CN(C)C4)CC3)cn([C@H]3CC[C@H](O)CC3)c2n1` [compound 14, (4-(7-((1R,4S)-4-hydroxycyclohexyl)-2-(((S)-pentan-2-yl)amino)-7H-pyrrolo[2,3-d]pyrimidin-5-yl)piperidin-1-yl)(1-methylazetidin-3-yl)methanone]: the IC50 in assay [1] was less than 10 nM; in assay [2], 10 to 100 nM.
As for `CCC[C@H](C)Nc1ncc2c(C3CCN(C(=O)c4cccc(OC)c4)CC3)cn([C@H]3CC[C@H](O)CC3)c2n1` [compound 32, (4-(7-((1R,4S)-4-hydroxycyclohexyl)-2-(((S)-pentan-2-yl)amino)-7H-pyrrolo[2,3-d]pyrimidin-5-yl)piperidin-1-yl)(3-methoxyphenyl)methanone], the half-inhibitory concentration (IC50) in assay [1] is less than 10 nM; in assay [2], 100 to 1000 nM.
The matching figures for `CCC[C@H](C)Nc1ncc2c(C3CCN(C4CCN(C)CC4)CC3)cn([C@H]3CC[C@H](O)CC3)c2n1` [compound 52, (1S,4R)-4-(5-(1′-methyl-[1,4′-bipiperidin]-4-yl)-2-(((S)-pentan-2-yl)amino)-7H-pyrrolo[2,3-d]pyrimidin-7-yl)cyclohexan-1-ol]: less than 10 nM and 10 to 100 nM.
With `CCC[C@H](C)Nc1ncc2c(C3CCN(C(=O)c4ccccc4)CC3)cn([C@H]3CC[C@H](O)CC3)c2n1` [compound 30, (4-(7-((1R,4S)-4-hydroxycyclohexyl)-2-(((S)-pentan-2-yl)amino)-7H-pyrrolo[2,3-d]pyrimidin-5-yl)piperidin-1-yl)(phenyl)methanone], the IC50 in assay [1] is less than 10 nM; in assay [2], 10 to 100 nM.
The matching figures for `CCC[C@H](C)Nc1ncc2c(C3CCN(C(=O)c4cc(C)nc(C)c4)CC3)cn([C@H]3CC[C@H](C(F)F)CC3)c2n1` [compound 88, (4-(7-((1R,4S)-4-(difluoromethyl)cyclohexyl)-2-(((S)-pentan-2-yl)amino)-7H-pyrrolo[2,3-d]pyrimidin-5-yl)piperidin-1-yl)(2,6-dimethylpyridin-4-yl)methanone]: less than 10 nM and 100 to 1000 nM.
In the case of `CCC[C@H](C)Nc1ncc2c(C3CCN(C(=O)CCOC)CC3)cn([C@H]3CC[C@H](O)CC3)c2n1` [compound 9, 1-(4-(7-((1R,4S)-4-hydroxycyclohexyl)-2-(((S)-pentan-2-yl)amino)-7H-pyrrolo[2,3-d]pyrimidin-5-yl)piperidin-1-yl)-3-methoxypropan-1-one], the figures for the IC50 in assay [1] and in assay [2] were less than 10 nM and 100 to 1000 nM, respectively.
The matching figures for `CCC[C@H](C)Nc1ncc2c(C3CCN(C(=O)c4ccc(NC)cc4)CC3)cn([C@H]3CC[C@H](O)CC3)c2n1` [compound 83, (4-(7-((1R,4S)-4-hydroxycyclohexyl)-2-(((S)-pentan-2-yl)amino)-7H-pyrrolo[2,3-d]pyrimidin-5-yl)piperidin-1-yl)(4-(methylamino)phenyl)methanone]: less than 10 nM and 10 to 100 nM.
